{
  "source": "patent US11045519B2",
  "about": "“Arginine-rich polypeptide compositions and methods of using same” (UNM Rainforest Innovations, priority 2017, dated 2021)",
  "key": {"recombinant His-furin": {"target": "T1, recombinant His-furin (Homo sapiens, UniProt P09958)", "T1 construct": "His", "T1 sequence (P09958 108-794)": "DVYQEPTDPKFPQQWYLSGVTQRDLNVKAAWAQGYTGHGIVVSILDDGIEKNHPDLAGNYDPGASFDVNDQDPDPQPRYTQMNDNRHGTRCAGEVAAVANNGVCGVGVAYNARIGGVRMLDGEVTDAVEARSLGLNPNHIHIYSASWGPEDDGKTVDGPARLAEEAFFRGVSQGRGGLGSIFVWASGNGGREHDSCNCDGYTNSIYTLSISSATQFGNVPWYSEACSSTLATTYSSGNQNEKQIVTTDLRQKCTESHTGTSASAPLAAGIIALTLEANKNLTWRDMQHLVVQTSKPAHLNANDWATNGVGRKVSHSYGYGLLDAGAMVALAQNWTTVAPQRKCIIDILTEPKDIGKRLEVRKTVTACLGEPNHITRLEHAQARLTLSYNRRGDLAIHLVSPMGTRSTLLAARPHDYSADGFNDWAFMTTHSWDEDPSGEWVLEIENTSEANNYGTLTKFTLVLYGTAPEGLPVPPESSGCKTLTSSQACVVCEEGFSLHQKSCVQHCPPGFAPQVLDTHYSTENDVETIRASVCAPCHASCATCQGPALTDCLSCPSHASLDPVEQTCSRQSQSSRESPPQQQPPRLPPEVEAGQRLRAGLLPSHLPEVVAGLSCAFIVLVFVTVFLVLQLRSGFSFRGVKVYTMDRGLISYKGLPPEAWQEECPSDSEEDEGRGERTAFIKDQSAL", "test": "Furin cleavage of HPV16 L2 capsid protein (immunoblot)", "assay_type": "biochemical", "conditions": "1 μM, 3 nM His-furin, 2 h", "protocol": "FIG. 9. PolyR inhibits HPV16 L2 protein cleavage by furin and induces accumulation of internalized virus particles in late endosomal fraction. (A) Equal amount of HPV16 diluted in 50 μl furin assay buffer (1 mM CaCl2), 100 mM HEPES, 0.5% Triton X-100, 1 mM β-mercaptoethanol) was loaded into six tubes, […], in the presence of 1.3 μM furin inhibitor1 (Merck Millipore Corp., Burlington, Mass.), or 1 μM polyR. Samples were mixed with SDS-PAGE sample buffer and boiled before fractionation on 9% gel. Proteins were transferred onto PVDF membranes and after blocking, incubated with affinity-purified rabbit anti-HPV16 polyclonal antibody. Secondary donkey anti-rabbit horseradish peroxidase-coupled antibody was used for detection of HPV16 capsid proteins. (B) HaCaT cells grown on coverslips were incubated with HPV16 PsVs for one hour at 37° C. to initiate virus binding (and partial internalization) before adding 1 μM polyR and further incubated for seven hours. […]\nCleavage of the L2 minor capsid protein by the cellular pro-protein convertase, furin, is an essential step in infectious entry of HPVs. […] After two hours of incubation, HPV16 cleavage was assessed by immunoblotting using anti-HPV 16 polyclonal antibody. […]"}, "HPV16 PsVs": {"system": "HPV16 PsVs", "test": "Dissociation of cell-bound HPV16 PsVs from HaCaT cells (L1 immunoblot)", "assay_type": "cell-based", "conditions": "3 μM added to HPV-bound HaCaT cells, 1 h 4° C.", "protocol": "(A) HPV16 PsVs were bound to HaCaT cells (one hour at 4° C.), before the addition of […]. After a one-hour incubation at 4° C., unbound virus was washed out, cells were lysed and analyzed for the content of HPV L1 protein. (B) HaCaT cells were exposed to HPV 16 PsV at 4° C. in the absence of polyR, simultaneously with polyR (0 h), or one hour after polyR treatment (+1 h). After extensive washing with PBS, cells were lysed and analyzed for the content of HPV16 L1 protein.\nFIG. 19. […] HPV16 PsVs were bound to HaCaT cells (one hour in cold), before the addition of 5 μM PrS. After a one-hour incubation at 4° C., unbound virus was washed out, cells were lysed, and HPV L1 protein content was measured as described in FIG. 16.\nTo determine whether polyR could cause HPV16 dissociation from cells, HPV16 PsVs were bound to HaCaT cells for one hour at 4° C. After washing away unbound virus, HPV-bound cells were incubated with 3 μM polyR for one hour at 4° C.; control cells were untreated. Cells were lysed and analyzed for HPV L1 protein content. […]\nThe post-attachment inhibitory effects of PrS could be due the displacement of capsids from the cell surface. […] After a one-hour incubation at 4° C., unbound virus was washed out, cells were lysed, and the HPV L1 protein content was analyzed."}, "authentic HPV16 virions": {"system": "authentic HPV16 virions", "test": "Authentic HPV16 virion infection of HaCaT cells, RT-qPCR of spliced E1^E4 mRNA", "assay_type": "cell-based", "conditions": "0.5 μM, 100 vge/cell, three days post-infection", "protocol": "FIG. 10. PolyR inhibits activity of authentic HPV16 virions. HaCaT cells were infected with authentic HPV16 virions (100 vge/cell) in the presence or absence of 500 nM polyR. At three days post-infection, total RNA was extracted from cells using TRIzol reagent (Invitrogen, Thermo Fisher Scientific, Inc., Carlsbad, Calif.). Equal amount of the RNA of polyR-treated and untreated cells was subjected to reverse transcription. Each RT reaction was divided into three qPCR amplifications of 45 cycles targeting the spliced transcripts of cellular β-actin or HPV16 cDNAs. Primers E7.4A and E4B target an amplimer derived from spliced E1^E4 RNA, as previously described (Patterson et al., 2005. J Virol 79:6838-6847).\nTo validate the effect of polyR was not simply related to pseudovirus infections, HaCaT cells were infected with authentic HPV16 virions carrying viral genomes (100 vge/cell) in the presence or absence of 0.5 μM polyR. At three days post-infection, the cells were harvested and total RNA was extracted using TRIzol reagent (Invitrogen, Thermo Fisher Scientific, Inc., Carlsbad, Calif.). Nucleic acid concentrations were determined by optical density measurements. […] Quantification of cDNA derived from the spliced viral E1^E4 mRNA via qPCR was analyzed in triplicate samples from multiple separate experimental infections."}},
  "data": [
    {"substance": "poly-L-arginine [polyR]", "values": [
      {"measurement": "furin cleavage of L2 capsid protein", "setting": "recombinant His-furin", "value": "inhibited cleavage of the L2 capsid protein"},
      {"measurement": "release of HPV16 from cell membrane", "setting": "HPV16 PsVs", "value": "did not induce the release of HPV16 from the cell membrane"},
      {"measurement": "inhibition of HPV16 infection (RT-qPCR)", "setting": "authentic HPV16 virions", "value": "~90", "unit": "%"}
    ]}
  ]
}
